Experimental data as given in the OPERA property sets (Mansouri et al. 2018).

Row | SMILES | log10 OH rate constant (cm³/molecule/s) (25.0 °C) | further results
1 | CCC(C)CC | -11.2 | 
2 | O=[N+]([O-])c1ccccc1O | -12 | 
3 | CS(C)=O | -10.2 | 
4 | C1=CCCCC1 | -10.2 | 
5 | COC(C)OC | -11.1 | 
6 | BrCCBr | -12.6 | 
7 | CCCS | -10.3 | 
8 | CCO | -11.5 | 
9 | ClC(Cl)=C(Cl)Cl | -12.8 | 
10 | c1cocn1 | -11 | 
11 | C=C1C=CC(C(C)C)CC1 (stereo not drawn) | -9.77 | 
12 | OCCCl | -11.9 | 
13 | c1ccc(-c2ccccc2)cc1 | -11.1 | 
14 | C=C=CC | -10.6 | 
15 | O=CCO | -11 | 
16 | FC(F)(Cl)Br | < -15 | 
17 | CCC=C=O | -9.93 | 
18 | COC(C)(C)OC | -11.4 | 
19 | C#CC | -11.2 | 
20 | CCC(C)C | -11.4 | 
21 | C=C(C)c1ccccc1 | -10.3 | 
22 | Cc1ccc2ccccc2c1[N+](=O)[O-] | < -11.1 | 
23 | Oc1cccc(Cl)c1Cl | -11.8 | 
24 | CCC(C)=O | -11.9 | 
25 | CCCCC(C)CCC (stereo not drawn) | -11 | 
26 | CC(=O)C(C)=O | -12.6 | 

Row | SMILES | log10 OH rate constant (cm³/molecule/s) (25.0 °C) | further results
27 | Fc1ccccc1 | -12.2 | 
28 | Clc1ccc(-c2ccccc2)cc1 | -11.4 | 
29 | C=CCCC=C | -10.2 | 
30 | CNN | -10.2 | 
31 | Cc1ccc(N)cc1N | -9.72 | 
32 | N#Cc1ccccc1 | -12.5 | 
33 | CC | -12.6 | 
34 | CCSCC | -10.8 | 
35 | CC(=O)c1ccccc1 | -11.6 | 
36 | C1CCCCCC1 | -10.9 | 
37 | CN(C)CCO | -10 | 
38 | CCS | -10.3 | 
39 | CC(C)S | -10.4 | 
40 | CC(=O)CC(C)=O | -11.9 | 
41 | CN(C)N=O | -11.6 | 
42 | Cc1cccc(C)c1 | -10.6 | 
43 | CCOCCCO | -10.7 | 
44 | CC(=O)CO | -11.5 | 
45 | C=C(C)C(=C)C | -9.91 | 
46 | Clc1ccccc1Cl | -12.4 | 
47 | CCCCCCCCC | -11 | 
48 | CC1CCCCC1 | -11 | 
49 | CCC(C)CS (stereo not drawn) | -10.3 | 
50 | C=C(C)CCC(=C)C | -9.92 | 
51 | FC(F)=C(Cl)Cl | -11.1 | 
52 | CCC(C)OC(C)=O (stereo not drawn) | -11.3 | 

Row | SMILES | log10 OH rate constant (cm³/molecule/s) (25.0 °C) | further results
53 | Ic1ccccc1 | -12 | 
54 | CCOCCOC(C)=O | -10.9 | 
55 | CCF | -12.6 | 
56 | CCC(=O)OC | -12 | 
57 | C=C=C(C)C | -10.2 | 
58 | CC(C)(C)O | -12 | 
59 | Brc1ccccc1 | -12.1 | 
60 | CC(=O)C(F)(F)F | -13.8 | 
61 | COC(C)CCO (stereo not drawn) | -10.6 | 
62 | C1CCCC1 | -11.3 | 
63 | Clc1cccc(Cl)c1 | -12.1 | 
64 | c1ccc2ccccc2c1 | -10.7 | 
65 | CN |  | log10 OH rate constant (cm³/molecule/s) (26.0 °C): -10.7
66 | Oc1ccc(Cl)cc1Cl | -12 | 
67 | C1OCOCO1 | -11.2 | 
68 | CC(C)(C)C | -12.1 | 
69 | CCCC | -11.6 | 
70 | C#C | -12.1 | 
71 | ClCC1CO1 (stereo not drawn) | -12.4 | 
72 | CC1=CCCCC1 | -10 | 
73 | CCC(=O)CC | -11.7 | 
74 | C/C=N/O | -11.7 | 
75 | C=C=CCC | -10.4 | 
76 | C=C=C |  | log10 OH rate constant (cm³/molecule/s) (22.0 °C): -11
77 | CCCC(C)(C)C | -11.5 | 
78 | c1ccc2c(c1)CCO2 | -10.4 | 

Row | SMILES | log10 OH rate constant (cm³/molecule/s) (25.0 °C) | further results
79 | c1ccncc1 | -12.4 | 
80 | CC1CO1 (stereo not drawn) | -12.3 | 
81 | FC(F)(F)c1ccc(Cl)cc1 | -12.6 | 
82 | CC(C)CS | -10.3 | 
83 | C1=CC=CCC=C1 | -10 | 
84 | CC#CC | -10.6 | 
85 | C1C2CC3CC1CC(C2)C3 | -10.6 | 
86 | CN(C)C | -10.2 | 
87 | C=CC(C)(C)C | -10.5 | 
88 | CC1CCCC(C)(C)C1 (stereo not drawn) | -11.1 | 
89 | C/C=C/C=O | -10.4 | 
90 | C=CC(C)=O | -10.7 | 
91 | CC=O | -10.8 | 
92 | FC(F)C(F)(F)F | -14.6 | 
93 | CCN |  | log10 OH rate constant (cm³/molecule/s) (27.0 °C): -10.6
94 | CC(C)CC(C)C(C)C (stereo not drawn) | -11.1 | 
95 | CC(F)F | -13.5 | 
96 | COP(=S)(OC)SC | -10.3 | 
97 | COCC(C)=O | -11.2 | 
98 | C=CC=C(C)C | -9.88 | 
99 | C=CCCl | -10.8 | 
100 | OCC(F)(F)F | -13 | 
101 | C1=Cc2cccc3cccc1c23 | -9.96 | 
102 | C1CC2CCC1C2 | -11.3 | 
103 | c1ccoc1 | -10.4 | 
104 | FC(F)Cl | -14.3 | 

Row | SMILES | log10 OH rate constant (cm³/molecule/s) (25.0 °C) | further results
105 | C=C(C)C=CC | -9.87 | 
106 | CCCCC | -11.4 | 
107 | C=C(C)C=O | -10.5 | 
108 | Cc1cccc([N+](=O)[O-])c1 | -12 | 
109 | COCCC(OC)OC | -10.7 | 
110 | C=CCO | -10.6 | 
111 | CCCCCCC | -11.1 | 
112 | C1CCSC1 | -10.7 | 
113 | O=C1CCCCC1 | -11.2 | 
114 | CCCCCCCCCC | -10.9 | 
115 | FCCF | -13 | 
116 | CC(F)(F)F | -14.8 | 
117 | CCOC=O | -12 | 
118 | Cc1ccc2ccccc2c1 | -10.3 | 
119 | CCOCCOCCOCC | -10.6 | 
120 | CC(C)C(=O)C(C)C | -11.3 | 
121 | CNC | -10.2 | 
122 | C#CC#C | -10.7 | 
123 | CC(=O)OO[N+](=O)[O-] | -13 | 
124 | CC(=O)O | -12.1 | 
125 | CCCCOC(=O)CCC | -11 | 
126 | c1ccccc1 | -11.9 | 
127 | C#CCC | -11.1 | 
128 | CN(C)c1ccccc1 | -9.83 | 
129 | Cc1cc(C)cc(C)c1 | -10.2 | 
130 | CC(=O)C=O | -10.8 | 

Row | SMILES | log10 OH rate constant (cm³/molecule/s) (25.0 °C) | further results
131 | C1CO1 | -13.1 | 
132 | CCCC(C)O (stereo not drawn) | -10.9 | 
133 | ClCc1ccccc1 | -11.5 | 
134 | O=[N+]([O-])c1cccc2ccccc12 | -11.3 | 
135 | CC(C)C(C)C | -11.2 | 
136 | CCCCCCCCCCCCCC | -10.7 | 
137 | C1CCCCC1 | -11.1 | 
138 | CCCOC(C)=O | -11.5 | 
139 | CC(C)=C=O | -9.97 | 
140 | CCC=O | -10.7 | 
141 | CC(C)=C(C)C | -9.96 | 
142 | CCCCC(C)=O | -11 | 
143 | Oc1ccccc1 | -10.6 | 
144 | C1CC2CCC1CC2 | -10.8 | 
145 | CCc1ccc(C)cc1 | -10.9 | 
146 | OC1CCCC1 | -11 | 
147 | CC(C)CC=O | -10.6 | 
148 | C=CCCCCC | -10.4 | 
149 | CCC(C)(C)C | -11.6 | 
150 | C=Cc1ccccc1 | -10.2 | 
151 | CC1=CCC(C(C)C)=CC1 | -9.75 | 
152 | C1=CCCCC=C1 | -9.86 | 
153 | CC=Cc1ccccc1 | -10.2 | 
